Test results taken from ChEMBL document CHEMBL3430912, “GSK Tres Cantos Anti-Kinetoplastid Screening (TCAKS) Data”.

What was measured:
Trypanosoma cruzi [1] = experiment: GSK_TCAKS: pIC50 Trypanosoma cruzi viability assay using beta-GAL activity. This assay was run at single shot at 5uM compound concentration per well. The biological reagents consisted of NIH-3T3 host cells and trypomastigotes parasitic cells; both cell types were set to a 3.3 * 10^5 cells/mL dilution in assay DMEM by means of a CASY cell counter device using a 60um capillary. 6 uL of the mixture were dispensed per well (about 1 * 10^3 host-cells and 1 * 10^3 parasites) with a Multidrop Combi dispenser. […] In all wells, the percentage of DMSO never exceeded 0.5%. Plates incubated for four days at 37C, 5% CO2. The substrate used for the assay fluorescence intensity (FLINT) readout was resorufin-beta-D-galactopiranoside (Sigma-Aldrich) at 5uM per well. It was diluted in PBS supplemented with the soft detergent Igepal (Fluka).; assay type: functional, organism-based, Mus musculus; settings: Tulahuen, NIH3T3
Trypanosoma cruzi [2] = experiment: (§1) GSK_TCAKS: pIC50 Trypanosoma cruzi Imaging: Infected Cells. […] Cells were then washed once with PBS before infection. T. cruzi trypomastigotes, collected at days 5 to 8 after infection from LLC-MK2 parasite infected cultures, were allowed to swim out for 4h at 37C from a centrifuged pellet (2,500 rpm/10 min/room temperature). Trypomastigotes were then collected and counted in a CASY Cell Counter. Trypomastigotes, in supplemented DMEM, were added to H9c2 cultures in a multiplicity of infection of 1 and incubated for 18 h. Cells were washed once with PBS before incubation of the infected H9c2 monolayer with trypsin (Life-Technologies) to detach cells from the flask. Cells were counted in a CASY Cell Counter using a 150 um capillary and their density set at 5 * 10^4 cells per mL in supplemented assay DMEM. Infected H9c2 were dispensed into 384-well poly-lysine coated assay plates at 50uL per well using a Multidrop Combi dispenser. After seeding them, the plates were incubated at 37C, 5% CO2 for 72h. Cultures were then fixed and stained by addition of 50 uL of a solution containing 8% formaldehyde and 4 uM DRAQ5 DNA dye (BioStatus, UK) per well. […] Five images were collected per well for reliable statistical analysis. Automated image analysis was performed with a script developed on Acapella High Content Imaging and Analysis Software (PerkinElmer). Output: percentage of infected cells per well as a second infection marker.; assay type: functional, organism-based, Rattus norvegicus; settings: H9c2, 4 h
Trypanosoma cruzi [3] = experiment: GSK_TCAKS: pIC50 Trypanosoma cruzi Imaging: Amastigotes/Cell. […] Cells were then washed once with PBS before infection. T. cruzi trypomastigotes, collected at days 5 to 8 after infection from LLC-MK2 parasite infected cultures, were allowed to swim out for 4h at 37C from a centrifuged pellet (2,500 rpm/10 min/room temperature). Trypomastigotes were then collected and counted in a CASY Cell Counter. Trypomastigotes, in supplemented DMEM, were added to H9c2 cultures in a multiplicity of infection of 1 and incubated for 18 h. Cells were washed once with PBS before incubation of the infected H9c2 monolayer with trypsin (Life-Technologies) to detach cells from the flask. Cells were counted in a CASY Cell Counter using a 150 um capillary and their density set at 5 * 10^4 cells per mL in supplemented assay DMEM. Infected H9c2 were dispensed into 384-well poly-lysine coated assay plates at 50uL per well using a Multidrop Combi dispenser. After seeding them, the plates were incubated at 37C, 5% CO2 for 72h. Cultures were then fixed and stained by addition of 50 uL of a solution containing 8% formaldehyde and 4 uM DRAQ5 DNA dye (BioStatus, UK) per well. […] Five images were collected per well for reliable statistical analysis. Automated image analysis was performed with a script developed on Acapella High Content Imaging and Analysis Software (PerkinElmer). Output: number of amastigotes per cell as infection level measurement.; assay type: functional, organism-based, Rattus norvegicus; settings: H9c2, 4 h
Trypanosoma cruzi [4] = experiment: as §1, with “H2C9” for “Trypanosoma cruzi”, “H9c2 Host Cardiomyocytes.” for “Infected Cells.”, “Number” for “percentage”, “H9c2 Host Cardiomyocytes nuclei to determine drug-related cytotoxicity.” for “infected cells per well as a second infection marker.”; assay type: functional, organism-based, Rattus norvegicus; settings: H9c2, 4 h
Leishmania donovani [5] = experiment: GSK_TCAKS: pIC50 Leishmania donovani viability assay using fluorescence intensity. Assay plates (1536-well) were prepared by adding 30nL per well of compound. For single shot assay, the final compound concentration was 5uM. […] Briefly, eGFP LdBOB axenic amastigotes were harvested, fixed and counted in a CASY cell counter (Roche-Applied Science). A final concentration of 1.5 * 10^5 cells per well were prepared in amastigote media containing 500 U/mL penicillin/streptomycin (Invitrogen) and 6uL was dispensed to each experimental well using a Multidrop Combi dispenser (Thermo Scientific). 6uL of assay media was dispensed to control columns used as reference for 100% compound response. Following incubation for 72 h at 37C, 5% CO2, 2 uL of resazurin was added to each well at a final concentration of 0.5 mM in phosphate buffered saline (PBS) with IGEPAL (Sigma-Aldrich), 0.05% (v/v).; assay type: functional, organism-based
Leishmania donovani [6] = experiment: GSK_TCAKS: pIC50 Leishmania donovani Imaging: Infected Macrophages. Assay plates (384-well) were prepared by adding 250nL of compound to each well. For single shot assay, the final compound concentration was 5 uM. […] Automated image analysis was performed with a script developed on Acapella High Content Imaging and Analysis Software (PerkinElmer). Output: Percent of infected macrophage cells were reported for each well.; assay type: functional, organism-based, Homo sapiens; settings: THP-1
Leishmania donovani [7] = experiment: GSK_TCAKS: pIC50 Leishmania donovani Imaging: Amastigotes/Macrophages. Assay plates (384-well) were prepared by adding 250nL of compound to each well. For single shot assay, the final compound concentration was 5 uM. […] Automated image analysis was performed with a script developed on Acapella High Content Imaging and Analysis Software (PerkinElmer). Output: Average number of amastigotes per macrophage cell were reported for each well.; assay type: functional, organism-based, Homo sapiens; settings: THP-1
Leishmania donovani [8] = experiment: GSK_TCAKS: pIC50 Leishmania donovani Imaging: THP-1 Host Macrophages. Assay plates (384-well) were prepared by adding 250nL of compound to each well. For single shot assay, the final compound concentration was 5 uM. […] Automated image analysis was performed with a script developed on Acapella High Content Imaging and Analysis Software (PerkinElmer). Output: THP-1 cell count were reported for each well.; assay type: functional, organism-based, Homo sapiens
[9] = test system: Trypanosoma brucei brucei; experiment: GSK_TCAKS: pIC50 Trypanosoma brucei viability assay using fluorescence intensity. Assay plates (1536-well) were prepared by dispensing 25nL of compound solution per well using an Echo acoustic dispenser (Labcyte).; assay type: functional, organism-based; settings: Lister 427, 2 h
[10] = test system: Trypanosoma brucei brucei; experiment: GSK_TCAKS: pIC50 Trypanosoma brucei viability assay using luminiscence. Assay plates (1536-well) were prepared. T. brucei cultures were harvested and counted in a CASY cell counter. A parasite suspension was prepared at a final concentration of 5 * 10^4 cells/mL in complete HMI9 medium and 6uL was dispensed to all wells containing compounds using a Multidrop Combi dispenser. 6uL of HMI9 media with 0.4% DMSO were dispensed to control columns. Plates were incubated for 24 h at 37C, 5% CO2 then tempered for 10 min at room temperature. ATP content was quantified by adding 4 uL of CellTiter-Glo Reagent (Promega) according to the manufacturer's instructions. Luminescence was measured using a ViewLux.; assay type: functional, organism-based; settings: Lister 427, CASY
[11] = GSK_TCAKS: pIC50 HepG2 human cell line viability assay using luminiscence. […] Seeding density was checked to ensure that new mono-layers were not more than 50% confluent at the time of harvesting. Cell suspension was added to 500 mL of the same medium at a final density of 1.2 * 10^5 cells/mL. This cell suspension was dispensed (25 uL, 3000 cells per well) into 384-well clear-bottom plates using a Multidrop Combi dispenser. Prior to addition of the cell suspension, the screening compounds (250 nL) were pre-dispensed into the plates with an Echo liquid handler. Plates were incubated for 48 h at 37C, 5% CO2. After incubation, plates equilibrated at room temperature for 30 min before proceeding to develop the luminescent signal. The signal developer, CellTiter-Glo Reagent, was allowed to equilibrate at room temperature for 30 min and added to the plates (25uL per well) using a Multidrop Combi dispenser. Plates were left for 10 min at room temperature for stabilization and then read using a ViewLux.; assay type: toxicity, cell-based
[12] = molecular target: Sterol 14-alpha demethylase (Trypanosoma cruzi (strain CL Brener), UniProt Q7Z1V1); experiment: GSK_TCAKS: pIC50 CYP51 from Trypanosoma cruzi.; assay type: functional
Sterol 14-alpha demethylase, sequence (Q7Z1V1 whole entry): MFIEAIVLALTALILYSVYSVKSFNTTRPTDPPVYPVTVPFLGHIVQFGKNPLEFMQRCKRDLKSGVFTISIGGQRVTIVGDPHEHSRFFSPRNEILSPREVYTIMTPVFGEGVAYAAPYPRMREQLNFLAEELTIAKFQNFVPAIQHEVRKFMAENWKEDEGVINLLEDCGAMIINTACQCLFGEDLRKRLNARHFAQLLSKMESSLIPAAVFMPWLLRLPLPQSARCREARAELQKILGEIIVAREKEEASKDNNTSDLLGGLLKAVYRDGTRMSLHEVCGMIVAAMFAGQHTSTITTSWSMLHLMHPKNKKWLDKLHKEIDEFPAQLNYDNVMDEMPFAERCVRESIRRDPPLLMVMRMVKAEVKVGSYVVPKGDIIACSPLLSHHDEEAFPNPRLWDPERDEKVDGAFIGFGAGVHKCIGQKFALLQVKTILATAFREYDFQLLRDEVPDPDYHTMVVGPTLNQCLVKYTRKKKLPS

SMILES | IC50 (Trypanosoma cruzi [1]) [µM] | IC50 (Trypanosoma cruzi [2]) [µM] | IC50 (Trypanosoma cruzi [3]) [µM] | IC50 (Trypanosoma cruzi [4]) [µM] | IC50 (Leishmania donovani [5]) [µM] | IC50 (Leishmania donovani [6]) [µM] | IC50 (Leishmania donovani [7]) [µM] | IC50 (Leishmania donovani [8]) [µM] | IC50 [9] [µM] | IC50 [10] [µM] | IC50 at 48 h [11] [µM] | IC50 [12] [µM]
O=C(c1cccc(Nc2ncc(-c3ccc4c(c3)OCO4)cn2)c1)N1CCOCC1 | 6.31 | 1.26 | 0.794 | 6.31 | 2 | 3.98 | 1.58 | > 63.1 | 25.1 | > 50.1 | > 126 | 20
O=C1CN(C(=O)c2cccc(Nc3ncc(-c4ccc5c(c4)OCO5)cn3)c2)CCN1 | 1.58 | 0.794 | 0.501 | > 63.1 | 1.58 | 5.01 | 2 | > 63.1 | > 50.1 | > 50.1 | > 126 | 25.1
O=C(Nc1nc2ccccc2[nH]1)c1ccc2[nH]cnc2c1 | 25.1 | > 50.1 | 50.1 | > 50.1 | 2.51 | 5.01 | 3.16 | > 50.1 | > 39.8 | > 39.8 | 50.1 | 5.01
CNc1nc(C)nc(N2CCc3cc(C(=O)NCc4ccc(-c5nccn5C)cc4Cl)ccc32)n1 | 5.01 | 12.6 | 5.01 | 50.1 | 5.01 | 0.794 | 0.794 | 25.1 | 12.6 | 20 | 31.6 | 1.58
COc1ncc(-c2ccc3ncnc(N4CCOCC4)c3c2)cc1NS(C)(=O)=O | 0.501 | 6.31 | 2.51 | 1.58 | 3.16 | 5.01 | 0.631 | 1 | 0.316 | 0.501 | > 100 | 39.8
COc1ccc(CNc2nsc3ccccc23)cc1OC | 6.31 | 25.1 | 20 | > 50.1 | 3.16 | 6.31 | 5.01 | 25.1 | 7.94 | 6.31 | 50.1 | 12.6
CC1CN(Cc2ccc(C#N)cc2)CCN1c1ccc(NC(=O)c2ccccc2F)cc1 (configuration not stated) | 25.1 | > 50.1 | > 50.1 | > 50.1 | 39.8 | 10 | 5.01 | > 50.1 | > 39.8 | > 39.8 | > 100 | 31.6
COc1ncc(-c2ccc3nccc(-c4ccncc4)c3c2)cc1NS(C)(=O)=O | 1.58 | 25.1 | 12.6 | 5.01 | 3.16 | 2.51 | 0.631 | 3.16 | 0.316 | 1 | > 100 | 79.4
CCCCc1cc(Nc2cc(C3CCC3)[nH]n2)nc(N2CCC2C(N)=O)n1 (configuration not stated) | 3.16 | 3.16 | 1.58 | 0.794 | 3.98 | 2 | 0.631 | 1 | 0.126 | 0.158 | > 100 | > 100
O=C(COc1nn(-c2ccccc2)c2ncccc12)NCc1ccccc1 | 12.6 | > 50.1 | 31.6 | > 50.1 | 0.398 | 0.316 | 0.0794 | > 50.1 | > 39.8 | > 39.8 | > 100 | 6.31
CC(=O)NCCNc1cc(-c2ccnc(Nc3cccc(Cl)c3)n2)ccn1 | 0.398 | 1.58 | 0.158 | 0.398 | 0.316 | 0.251 | 0.1 | 0.1 | 0.2 | 0.2 | 25.1 | 5.01
